Experimental data taken from patent publication US20180085386A1, “URIDINE MONOPHOSPHATE AND TRIPHOSPHATE DERIVATIVES, COMPOSITIONS AND METHODS OF USE” (Tufts University, priority 2016, published 2018).

Experiments:
[1] = system: circulating cytokines in plasma of PSAPP mice; assay: Circulating cytokine levels in plasma of PSAPP mice (multiplex); type: in vivo, mouse; details: vs vehicle
Description: As part of the study described in Example 16, the levels of numerous cytokines in plasma of mice treated with vehicle or compound 5 were also evaluated. As described in Example 16, treatment was initiated when the mice were approximately 3 months old. PSAPP mice were treated for 100 days with daily injections of 10 μg/kg of compound 5 or vehicle. Following treatment and the fear conditioning task experiment, plasma was taken for multiplex cytokine analysis of circulating cytokine levels in vehicle-treated versus compound-treated PSAPP mice. Cytokine levels are assayed using a multi-plex system where beads are labelled with capture antibody specific for each analyte tested. Each bead set is coupled to a specific capture antibody and is distinguishable from beads coupled to a different capture antibody. Thus, the levels of each analyte can be evaluated and distinguished. […] In FIGS. 10-13, compound 5 is indicated along the x-axis as “compound”.
In this study, treatment of PSAPP mice commenced when the mice were pre-symptomatic. Specifically, treatment was initiated when the mice were approximately 3 months old. PSAPP mice were treated for 100 days with daily, intraperitoneal injections of 10 μg/kg of compound 5 or vehicle. Following treatment, mice were assessed for the following: concentration of circulating pro-inflammatory cytokines; amyloid beta load (e.g., plaque burden); and memory in a fear conditioning task for memory formation. The data provided in Example 18 is for 18 vehicle treated mice and 20 compound treated mice. The data provided for the vehicle-treated group is the average across those mice, and error bars depict the standard error (SEM). Similarly, the data provided for the compound-treated group is the average across those mice, and the error bars depict the SEM. Mice were first evaluated in the fear conditioning task experiment. Subsequently, plasma was taken for multiplex cytokine analysis of circulating levels of cytokine in the plasma. Finally, plaque burden was assessed in the cortex and hippocampus of the mice.
In this study, treatment of PSAPP mice commenced after the mice were already symptomatic. Specifically, treatment was initiated when the mice were approximately 6 months old. PSAPP mice were treated for 7 days with daily, intraperitoneal injections of 10 μg/kg of compound 5 or vehicle. Following treatment, mice were assessed for the following: concentration of circulating pro-inflammatory cytokines; amyloid beta load (e.g., plaque burden); and plaque size. The data provided in Example 19 is for 7 vehicle treated mice and 7 compound treated mice. The data provided for the vehicle-treated group is the average across those mice, and error bars depict the standard error (SEM). Similarly, the data provided for the compound-treated group is the average across those mice, and the error bars depict the SEM. Plasma was taken for multiplex cytokine analysis of circulating levels of cytokine in the plasma. Subsequently, plaque burden was assessed in the cortex (using Aβ40) and hippocampus (using Aβ42) of the mice, and plaque size was also assessed.

[2] = system: THP-1 cells; assay: Cytokine release from human THP-1 cells (multiplex analysis of culture medium); type: cell-based; details: FIG. 19
Description: THP-1 cells, a human cell line derived from monocytes, were treated in vitro with vehicle, the P2Y6 receptor antagonist MRS 2578, or compound 5, singly or in combination. THP-1 cells were seeded in 24 well plates at a density of 4×10^5 cells/well in culture medium for 24 hours. Thereafter, vehicle, compound 5, or MRS 2578 (singly or in combination) were added to the cultures for 24 hours. Subsequently the culture medium was aspirated and subjected to multiplex cytokine analysis. Data are presented as means+/−sem. MRS 2578 has a molecular weight of about 472 and is also described using CAS number 711019-86-2.

[3] = 10 μg/kg daily for 100 days, Example 18
[4] = 10 μg/kg daily for 100 days, Example 18, FIG. 10
[5] = 10 μg/kg i.p. daily for 7 days from ~6 months (symptomatic), Example 20, FIG. 16
[6] = 10 μg/kg i.p. daily for 100 days from ~3 months, Example 19, FIG. 14

O=c1ccn([C@@H]2O[C@H](CO)C(O)C2O)c(=O)n1Cc1noc2ccccc12 (stereo in doubt) [compound 5]
average plasma level of IFN-r [1, 3]: reduced
average plasma level of IL-1β [1, 3]: reduced
average plasma level of IL-2 [1, 3]: reduced
average plasma level of IL-3 [1, 3]: reduced
average plasma level of IL-5 [1, 3]: reduced
average plasma level of IL-6 [1, 3]: reduced
average plasma level of IL-7 [1, 3]: reduced
average plasma level of IL-9 [1, 3]: reduced
average plasma level of IL-13 [1, 3]: reduced
average plasma level of IL-17 [1, 3]: reduced
average plasma level of LIF [1, 3]: reduced
average plasma level of MIP-1α [1, 3]: reduced
average plasma level of MIP-1β [1, 3]: reduced
plasma level of Eotaxin [1, 3]: no or substantially no change
plasma level of G-CSF [1, 3]: no or substantially no change
plasma level of GM-CSF [1, 3]: no or substantially no change
plasma level of IL-1α [1, 3]: no or substantially no change
plasma level of IP-10 [1, 3]: no or substantially no change
plasma level of LIX [1, 3]: no or substantially no change
plasma level of M-CSF [1, 3]: no or substantially no change
plasma level of MCP-1 [1, 3]: no or substantially no change
plasma level of MIP-2 [1, 3]: no or substantially no change
plasma level of IL-4 [1, 4]: statistically significant reduction
plasma level of IL-10 [1, 4]: statistically significant reduction
plasma level of IL-12 (IL-12(p70)) [1, 4]: statistically significant reduction
plasma level of IL-12(p40) (p40 subunit alone) [1, 4]: does not reflect a change
plasma level of IL-10 [1, 5]: statistically significant reduction
plasma level of IL-12 (IL-12(p70)) [1, 5]: statistically significant reduction
plasma level of IL-13 [1, 5]: statistically significant reduction
plasma level of IL-17 [1, 5]: statistically significant reduction
plasma level of MIP-1a [1, 5]: statistically significant reduction
plasma level of MIP-1b [1, 5]: statistically significant reduction
plasma level of TNFα [1, 5]: statistically significant reduction
plasma level of IL-2 [1, 6]: statistically significant reduction
plasma level of IL-4 [1, 6]: statistically significant reduction
plasma level of IL-10 [1, 6]: statistically significant reduction
plasma level of IL-12 (IL-12(p70)) [1, 6]: statistically significant reduction
plasma level of IL-13 [1, 6]: statistically significant reduction
plasma level of IL-17 [1, 6]: statistically significant reduction
plasma level of MIP-1a [1, 6]: statistically significant reduction
plasma level of MIP-1b [1, 6]: statistically significant reduction
effect of compound 5 on release of IL-7 ([2]; co-treatment with MRS 2578): abrogated
release of IL-7 into culture media ([2]; compound 5 10 nM, 24 hours, vs vehicle): decreased
